From patent US12509444B2, “Compounds and methods for CD73 modulation and indications therefor” (Plexxikon Inc., priority 2019, dated 2025)
Blank lines part the entries; values can stand above or below the molecule they belong to.

Experiments:
[1] = molecular target: T1, Human CD73 (amino acid residues 27-549) (Homo sapiens, UniProt P21589); assay: CD73 enzymatic assay (luciferase-based indirect assay, CellTiter-Glo); format: biochemical; details: 0.4 nM CD73, 150 μM AMP, 1 hour at room temperature
T1 construct: Human CD73 (amino acid residues 27-549); His tag (N); made in house; host or cells: E. coli
T1 sequence (P21589 27-549): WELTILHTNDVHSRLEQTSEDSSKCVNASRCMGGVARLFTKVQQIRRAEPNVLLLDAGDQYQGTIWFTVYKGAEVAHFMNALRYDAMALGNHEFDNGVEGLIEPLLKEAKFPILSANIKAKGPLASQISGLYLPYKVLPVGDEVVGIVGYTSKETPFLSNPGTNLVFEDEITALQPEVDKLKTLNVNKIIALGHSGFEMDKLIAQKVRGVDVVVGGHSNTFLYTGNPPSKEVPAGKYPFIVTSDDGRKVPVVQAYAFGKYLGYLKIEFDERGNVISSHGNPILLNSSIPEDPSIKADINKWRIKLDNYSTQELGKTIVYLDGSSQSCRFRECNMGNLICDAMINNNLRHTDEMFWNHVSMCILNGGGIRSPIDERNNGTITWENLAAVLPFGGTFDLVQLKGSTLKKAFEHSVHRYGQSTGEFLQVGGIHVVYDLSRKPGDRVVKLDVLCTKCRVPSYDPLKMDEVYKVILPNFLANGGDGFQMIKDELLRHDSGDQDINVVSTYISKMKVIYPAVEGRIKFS
How it was run: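 Residual AMP inhibits luciferase, so luminescence reports CD73 turnover; read with CellTiter-Glo 2.0 plus 1 μM final ATP, 30 min. Reaction used 0.4 nM N-His CD73 (27-549, E. coli), 150 μM AMP, HEPES pH 7.4 with Tween 20, 1 h at room temperature. IC50 fitted by nonlinear regression.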

[2] = molecular target: T2, human CD73 (Homo sapiens, UniProt P21589); assay: Inhibitor activity against CD73 in cell based assay (CD73 expressing CHO-K1 cells); details: CHO-K1 cells expressing human CD73, 150 μM AMP, 4 hours of incubation; read-out: CHO-K1 CELL VARIANT: CD73 IC50
T2 construct: expressed in transfected cells
T2 sequence (P21589 27-549): T1 sequence (P21589 27-549)
How it was run: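 Residual supernatant AMP was quantified via CellTiter-Glo luminescence (1 μM ATP added, 30 min, room temperature) after a 4 h exposure of human CD73-expressing CHO-K1 cells to 150 μM AMP plus compound, top final 10 μM, 8 points. IC50 came from nonlinear regression of percent inhibition.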

Compound: O=C(NC1CC2(CCC2)C1)O[C@@H]1CCN(c2cn[nH]c(=O)c2Cl)C1 [P-0115, (R)-1-(5-chloro-6-oxo-1,6-dihydropyridazin-4-yl)pyrrolidin-3-yl spiro[3.3]heptan-2-ylcarbamate]
IC50 [1]: 0.001 to 10 µM
IC50 [2]: 0.001 to 10 µM

Compound: O=C(NC1(C2CC2)CC1)O[C@@H]1CCN(c2cn[nH]c(=O)c2Cl)C1 [P-0118, (R)-1-(5-chloro-6-oxo-1,6-dihydropyridazin-4-yl)pyrrolidin-3-yl [1,1′-bi(cyclopropan)]-1-ylcarbamate]
IC50 [1]: 0.001 to 10 µM
IC50 [2]: 0.001 to 10 µM

Compound: O=C(NC1CC(O)C1)O[C@@H]1CCN(c2cn[nH]c(=O)c2Cl)C1 (stereo partly drawn) [P-0119, (R)-1-(5-chloro-6-oxo-1,6-dihydropyridazin-4-yl)pyrrolidin-3-yl (3-hydroxycyclobutyl)carbamate]
IC50 [1]: 0.001 to 10 µM
IC50 [2]: 0.001 to 10 µM

Compound: O=C(NC1CCN(C2CCCC2)CC1)O[C@@H]1CCN(c2cn[nH]c(=O)c2Cl)C1 [P-0121, (R)-1-(5-chloro-6-oxo-1,6-dihydropyridazin-4-yl)pyrrolidin-3-yl (1-cyclopentylpiperidin-4-yl)carbamate]
IC50 [1]: 0.001 to 10 µM
IC50 [2]: 0.001 to 10 µM

Compound: CC(C)N1CCC(NC(=O)O[C@@H]2CCN(c3cn[nH]c(=O)c3Cl)C2)CC1 [P-0122, (R)-1-(5-chloro-6-oxo-1,6-dihydropyridazin-4-yl)pyrrolidin-3-yl (1-isopropylpiperidin-4-yl)carbamate]
IC50 [1]: 0.001 to 10 µM
IC50 [2]: 0.001 to 10 µM

Compound: CC(C)(C)OC(=O)NC1CCC(NC(=O)O[C@@H]2CCN(c3cn[nH]c(=O)c3Cl)C2)CC1 (stereo partly drawn) [P-0124, (R)-tert-butyl (1-(5-chloro-6-oxo-1,6-dihydropyridazin-4-yl)pyrrolidin-3-yl) cyclohexane-1,4-diyldicarbamate]
IC50 [1]: 0.001 to 10 µM
IC50 [2]: 0.001 to 10 µM

Compound: N#Cc1c(N2CC[C@@H](OC(=O)NC3CCCCC3)C2)cn[nH]c1=O [P-0127, (R)-1-(5-cyano-6-oxo-1,6-dihydropyridazin-4-yl)pyrrolidin-3-yl cyclohexylcarbamate]
IC50 [1]: 0.001 to 10 µM
IC50 [2]: 0.001 to 10 µM

Compound: CS(=O)(=O)N[C@H]1CC[C@@H](NC(=O)O[C@@H]2CCN(c3cn[nH]c(=O)c3Cl)C2)CC1 [P-0128, (R)-1-(5-chloro-6-oxo-1,6-dihydropyridazin-4-yl)pyrrolidin-3-yl ((1s,4S)-4-(methylsulfonamido)cyclohexyl)carbamate]
IC50 [1]: 0.001 to 10 µM
IC50 [2]: 0.001 to 10 µM

Compound: CC1(NC(=O)O[C@@H]2CCN(c3cn[nH]c(=O)c3Cl)C2)CCOCC1 [P-0133, (R)-1-(5-chloro-6-oxo-1,6-dihydropyridazin-4-yl)pyrrolidin-3-yl (4-methyltetrahydro-2H-pyran-4-yl)carbamate]
IC50 [1]: 0.001 to 10 µM
IC50 [2]: 0.001 to 10 µM

Compound: O=C(N[C@@H]1CCN(c2cn[nH]c(=O)c2Cl)C1)O[C@@H]1CCN(c2cn[nH]c(=O)c2Cl)C1 [P-0135, (R)-1-(5-chloro-6-oxo-1,6-dihydropyridazin-4-yl)pyrrolidin-3-yl ((R)-1-(5-chloro-6-oxo-1,6-dihydropyridazin-4-yl)pyrrolidin-3-yl)carbamate]
IC50 [1]: 0.001 to 10 µM
IC50 [2]: 0.001 to 10 µM

Compound: O=C(N[C@H]1CCN(c2cn[nH]c(=O)c2Cl)C1)O[C@@H]1CCN(c2cn[nH]c(=O)c2Cl)C1 [P-0136, (R)-1-(5-chloro-6-oxo-1,6-dihydropyridazin-4-yl)pyrrolidin-3-yl ((S)-1-(5-chloro-6-oxo-1,6-dihydropyridazin-4-yl)pyrrolidin-3-yl)carbamate]
IC50 [1]: 0.001 to 10 µM
IC50 [2]: 0.001 to 10 µM

Compound: CC1(OC(=O)NC2CCC(F)(F)CC2)CCN(c2cn[nH]c(=O)c2Cl)C1 (stereo not drawn) [P-0138, 1-(5-chloro-6-oxo-1,6-dihydropyridazin-4-yl)-3-methylpyrrolidin-3-yl (4,4-difluorocyclohexyl)carbamate]
IC50 [1]: 0.001 to 10 µM
IC50 [2]: 0.001 to 10 µM

Compound: C[C@H]1CN(c2cn[nH]c(=O)c2Cl)C[C@@H]1OC(=O)NC1CCC(F)(F)CC1 [P-0139, (3R,4S)-1-(5-chloro-6-oxo-1,6-dihydropyridazin-4-yl)-4-methylpyrrolidin-3-yl (4,4-difluorocyclohexyl)carbamate]
IC50 [1]: 0.001 to 10 µM
IC50 [2]: 0.001 to 10 µM

Compound: O=C(NC1CCC(F)(F)CC1)O[C@@H]1CN(c2cn[nH]c(=O)c2Cl)C[C@H]1F [P-0141, (3R,4R)-1-(5-chloro-6-oxo-1,6-dihydropyridazin-4-yl)-4-fluoropyrrolidin-3-yl (4,4-difluorocyclohexyl)carbamate]
IC50 [1]: 0.001 to 10 µM
IC50 [2]: 0.001 to 10 µM

Compound: CCCS(=O)(=O)N[C@H]1CC[C@H](NC(=O)O[C@@H]2CCN(c3cn[nH]c(=O)c3Cl)C2)CC1 [P-0142, (R)-1-(5-chloro-6-oxo-1,6-dihydropyridazin-4-yl)pyrrolidin-3-yl ((1r,4R)-4-(propylsulfonamido)cyclohexyl)carbamate]
IC50 [1]: 0.001 to 10 µM
IC50 [2]: 0.001 to 10 µM

Compound: O=C(NC1CCC(C(F)(F)F)CC1)O[C@@H]1CCN(c2cn[nH]c(=O)c2Cl)C1 (stereo partly drawn) [P-0143, (R)-1-(5-chloro-6-oxo-1,6-dihydropyridazin-4-yl)pyrrolidin-3-yl (4-(trifluoromethyl)cyclohexyl) carbamate]
IC50 [1]: 0.001 to 10 µM
IC50 [2]: 0.001 to 10 µM

The remaining lines, values ahead:

IC50 [1]: 0.001 to 10 µM
IC50 [2]: 0.001 to 10 µM
Compound: CS(=O)(=O)NC1CCC(NC(=O)O[C@@H]2CCN(c3cn[nH]c(=O)c3Cl)C2)CC1 (stereo partly drawn) [P-0116, (R)-1-(5-chloro-6-oxo-1,6-dihydropyridazin-4-yl)pyrrolidin-3-yl (4-(methylsulfonamido)cyclohexyl)carbamate]

IC50 [1]: 0.001 to 10 µM
IC50 [2]: 0.001 to 10 µM
Compound: O=C(NC1CC2CCC1O2)O[C@@H]1CCN(c2cn[nH]c(=O)c2Cl)C1 (stereo partly drawn) [P-0117, (R)-1-(5-chloro-6-oxo-1,6-dihydropyridazin-4-yl)pyrrolidin-3-yl (7-oxabicyclo[2.2.1]heptan-2-yl)carbamate]

IC50 [1]: 0.001 to 10 µM
IC50 [2]: 0.001 to 10 µM
Compound: O=C(NC1CCN(c2ncccn2)CC1)O[C@@H]1CCN(c2cn[nH]c(=O)c2Cl)C1 [P-0123, (R)-1-(5-chloro-6-oxo-1,6-dihydropyridazin-4-yl)pyrrolidin-3-yl (1-(pyrimidin-2-yl)piperidin-4-yl)carbamate]

IC50 [1]: 0.001 to 10 µM
IC50 [2]: 0.001 to 10 µM
Compound: NC1CCC(NC(=O)O[C@@H]2CCN(c3cn[nH]c(=O)c3Cl)C2)CC1 (stereo partly drawn) [P-0125, (R)-1-(5-chloro-6-oxo-1,6-dihydropyridazin-4-yl)pyrrolidin-3-yl (4-aminocyclohexyl)carbamate]

IC50 [1]: 0.001 to 10 µM
IC50 [2]: 0.001 to 10 µM
Compound: CS(=O)(=O)N[C@H]1CC[C@H](NC(=O)O[C@@H]2CCN(c3cn[nH]c(=O)c3Cl)C2)CC1 [P-0129, (R)-1-(5-chloro-6-oxo-1,6-dihydropyridazin-4-yl)pyrrolidin-3-yl ((1r,4R)-4-(methylsulfonamido)cyclohexyl)carbamate]

IC50 [1]: 10 to 100 µM
IC50 [2]: 10 to 100 µM
Compound: O=C(NC1CCCCC1)O[C@@H]1CCN(c2cnn(-c3cccc(C(=O)O)c3)c(=O)c2Cl)C1 [P-0130, (R)-3-(5-chloro-4-(3-((cyclohexylcarbamoyl)oxy)pyrrolidin-1-yl)-6-oxopyridazin-1(6H)-yl)benzoic acid]

IC50 [1]: 0.001 to 10 µM
IC50 [2]: 0.001 to 10 µM
Compound: O=C(N[C@H]1CC[C@H](O)CC1)O[C@@H]1CCN(c2cn[nH]c(=O)c2Cl)C1 [P-0131, (R)-1-(5-chloro-6-oxo-1,6-dihydropyridazin-4-yl)pyrrolidin-3-yl ((1r,4R)-4-hydroxycyclohexyl)carbamate]

IC50 [1]: 0.001 to 10 µM
IC50 [2]: 0.001 to 10 µM
Compound: O=C(N[C@H]1CCCOC1)O[C@@H]1CCN(c2cn[nH]c(=O)c2Cl)C1 [P-0132, (R)-1-(5-chloro-6-oxo-1,6-dihydropyridazin-4-yl)pyrrolidin-3-yl ((S)-tetrahydro-2H-pyran-3-yl)carbamate]

IC50 [1]: 0.001 to 10 µM
IC50 [2]: 0.001 to 10 µM
Compound: O=C(NC1(C(F)(F)F)CC1)O[C@@H]1CCN(c2cn[nH]c(=O)c2Cl)C1 [P-0134, (R)-1-(5-chloro-6-oxo-1,6-dihydropyridazin-4-yl)pyrrolidin-3-yl (1-(trifluoromethyl)cyclopropyl) carbamate]

IC50 [1]: 0.001 to 10 µM
IC50 [2]: 0.001 to 10 µM
Compound: Cn1cc(C2(NC(=O)O[C@@H]3CCN(c4cn[nH]c(=O)c4Cl)C3)CC2)cn1 [P-0137, (R)-1-(5-chloro-6-oxo-1,6-dihydropyridazin-4-yl)pyrrolidin-3-yl (1-(1-methyl-1H-pyrazol-4-yl)cyclopropyl)carbamate]

IC50 [1]: 0.001 to 10 µM
IC50 [2]: 10 to 100 µM
Compound: C[C@@H]1CN(c2cn[nH]c(=O)c2Cl)C[C@@H]1OC(=O)NC1CCC(F)(F)CC1 [P-0140, (3R,4R)-1-(5-chloro-6-oxo-1,6-dihydropyridazin-4-yl)-4-methylpyrrolidin-3-yl (4,4-difluorocyclohexyl)carbamate]
